{
  "source": "patent US5232917A",
  "about": "“Methods, compositions, and compounds for allosteric modulation of the GABA receptor by members of the androstane and pregnane series” (priority 1991, dated 1993)",
  "key": {"punished responding": {"test_system": "punished responding", "assay": "Vogel conflict paradigm (lick suppression)", "assay_type": "in vivo, mice (male N.I.H. Swiss-Webster)", "conditions": "CDP 10 mg/kg", "text": "An Anxio-Monitor (Omnitech Electronics, Columbus, Ohio) was used for measuring lick suppression. The testing chamber consisted of a clear plexiglass box (29 cm×29 cm×23 cm) with a metal drinking tube located 2.5 cm from the floor and extending 2 cm into the box. The shock was applied through the drinking spout and was controlled by the Anxio-Monitor. […] The reinforcer was 0.1M sucrose.\nThe conflict test procedure described by Vogel et al. (1980) was employed. This procedure is a modification of the original lick suppression test first described by Vogel et al. (1971). After 24 hr. of water deprivation,mice were allowed to explore the test apparatus and drink without punishment for 10 min. or 100 licks. […] Mice were allowed unpunished access to the drinking tube for 20 licks, thereafter, every 10th lick was punished with 0.1 mA shock. The test duration was 5 min.\n(§1) The vehicle control data were analyzed across test days using an 1-way analysis of variance (ANOVA). […] The dose-response curves were then analyzed using an 1-way ANOVA, followed by Dunnett's t-test for individual comparisons between doses and control. The open-field and habituated locomotor data were analyzed using ANOVA followed by Dunnett's t-test. […] All data is expressed as the mean±S.E.M."}, "[1]": {"test_system": "number of light/dark transitions (anxiety)", "conditions": "Blumstein and Crawley, 1983; Crawley et al.; cited from earlier work"}, "[2]": {"conditions": "Swinyard & Woodhead, 1982; cited from earlier work"}, "[3]": {"test_system": "strychnine-induced convulsions", "parameters": "key to ED50 STR (strychnine): NP: no protection", "conditions": "Swinyard & Woodhead, 1982; cited from earlier work"}, "[4]": {"test_system": "picrotoxin-induced convulsions", "conditions": "Swinyard & Woodhead, 1982; cited from earlier work"}, "[5]": {"test_system": "(+)bicuculline-induced seizures", "conditions": "Swinyard & Woodhead, 1982; cited from earlier work"}, "[6]": {"test_system": "sedative potential (rotorod)", "conditions": "Swinyard & Woodhead, 1982; cited from earlier work"}, "[7]": {"test_system": "metrazol-induced convulsions", "conditions": "Swinyard & Woodhead, 1982; cited from earlier work"}, "[8]": {"test_system": "maximal electroshock seizure", "conditions": "Swinyard & Woodhead, 1982; cited from earlier work"}, "[9]": {"test_system": "GABA receptor complex (36Cl uptake, cerebral cortical synaptoneurosomes)", "assay": "GABA-stimulated 36Cl uptake in rat cerebral cortical synaptoneurosomes", "assay_type": "biochemical, rat (male Sprague-Dawley)", "experimental": "In addition, the ability of the BZ clonazepam to modulate ^36 Cl uptake in the presence or absence of 5α-pregnandiol was evaluated.\nThe homogenate was diluted to a final volume of 40 mL with buffer and filtered through three layers of Nylon mesh (160 μm).\nAliquots of membrane preparation (200 μL) were preincubated at 30° C. for 10 min. The interaction was initiated by the simultaneous addition of drugs/steroids and 0.2 mL ^36 Cl (New England Nuclear Boston, Mass., 0.55 mCi/mmol, 0.8 μCi/ml) resulting in a total incubation volume of 0.4 mL. Steroids and test drugs were solubilized in dimethylsufoxide (DMSO) and added to the reaction mixture in 2 μL aliquots. An equal volume of vehicle was always included in the control reaction mixture. The mixture was gently mixed and ^36 Cl uptake terminated after 5 sec by the of 5 mL of ice cold buffer containing 100 μM picrotoxin (Sigma Chem Co.) followed immediately by rapid filtration through glass fiber filters (Whatman GF/C) under vacuum. The filters were washed twice with 5 mL of ice-cold buffer and the filter-bound radioactivity quantitated by liquid scintillation spectrophotometry. Specific uptake was calculated by subtracting the amount of ^36 Cl bound to the filters in the absence of synaptoneurosomes from that observed in their presence. Percent enhancement represents percent increase in uptake over that of basal ^36 Cl uptake. Statistical comparisons utilized the analysis of variance (ANOVA)."}, "open-field activity": {"test_system": "open-field activity", "assay": "Open-field activity test", "assay_type": "in vivo, mice (male N.I.H. Swiss-Webster)", "conditions": "diazepam 10 mg/kg", "text": "(§2) The light/dark transition test (Crawley and Goodwin, 1980) is based on the observation that rodents naturally tend to explore novel environments, but open, brightly lit arenas are aversive to the rodents and inhibit exploratory behavior (Christmas and Maxwell, 1970; File, 1980). […] Similar to the light/dark transition test, the open-field test measures the antagonism between the tendency to explore a novel environment and the tendency to remain still in an aversive environment (brightly lit arena). […] The open-field test provides a simple, non-punished assessment of the potential anxiolytic properties of novel compounds. Finally, 3α-OH-DHP was tested for anxiolytic properties in a Vogel conflict paradigm. The ability of BZs to attenuate the suppression of behavior by punishment in conflict paradigms is well established (Gellar et al., 1962; Vogel et al., 1971).\n(§3) Male N.I.H. Swiss-Webster mice (Harlan) weighing 15-20 g were used in all experiments. The mice were housed 4/cage in polyethylene cages with sawdust bedding. The colony room was environmentally controlled (22° C.) with a 12 hr. light/dark cycle (0600-1800 hrs.). The mice had free access to food and water. The experiments were run from 0700-1500 hrs. and groups were counterbalanced for time of day effects.\nAs a secondary measure of anxiolytic effects, naive mice were placed in the center of a large, brightly lit plexiglass box (42×42×30.5 cm) and the total distance traveled was measured during a 10 min. test period. […] The Digiscan Activity Monitor (Omnitech Electronics, Columbus, Ohio) includes 16 photobeams that surround the box. The activity monitor is linked to a computer through a Digiscan Analyzer (Omnitech Electronics) and the data is analyzed using the Integrated Lab Animal Monitoring System (Omnitech Electronics). The mice were administered drugs as described for light/dark transitions.\n(§4) 2-Hydroxypropyl β-cyclodextrin Diazepam and chlordiazepoxide are available from Sigma, Co. (St. Louis, Mo.). CGS-8216 was obtained from Ciba-Geigy (Summit, N.J.). All drugs were dissolved in 20% β-cyclodextrin in water and sonicated overnight. All drugs were administered intraperitoneally in a volume of 100 μL/20 g. CGS-8216 was administered subcutaneously in a volume of 100 μL/20 g.\nas §1"}, "locomotor activity": {"test_system": "locomotor activity", "assay": "Locomotor activity in habituated mice", "assay_type": "in vivo, mice (male N.I.H. Swiss-Webster)", "experimental": "For evaluation of a drug's effects on general activity, mice were first habituated to the open-field apparatus for 15 min. The following day, mice were pretreated with a test drug and placed in the center of the activity chambers. The total distance traveled was measured for 10 min.\nas §1"}, "[10]": {"test_system": "number of light/dark transitions (anxiety)", "assay": "Light/dark transition test", "assay_type": "in vivo, mice (male N.I.H. Swiss-Webster)", "text": "as §2, §3\nThe method used was previously described by Crawley and Goodwin (1980). The apparatus included a large box (26×33×24 cm) connected to a small box (15×22×14 cm) through an opening (5×6 cm). The large box was brightly lit with a standard 100W light bulb, while the small box was kept dark. Following pretreatment with a test drug, mice were placed in the center of the large box and the number of transitions between the large and small boxes was counted for 10 min. […] During the antagonist studies, CGS-8216 was administered 30 min. prior to the test drug.\nas §4, §1"}, "[11]": {"test_system": "GABA receptor-chloride ionophore complex (GR complex)", "assay": "[35S]TBPS binding modulation assay"}, "[12]": {"test_system": "PMS, PND and catamenial epilepsy", "conditions": "cited from earlier work; for clinical effectiveness: PMS, PND, catamenial epilepsy (progesterone), menstrual-cycle correlated epileptic spells (desoxycorticosterone)"}},
  "note": "Like-named read-outs stand apart in the source and are kept apart here.",
  "data": [
    {"smiles": "CNC1=Nc2ccc(Cl)cc2C(c2ccccc2)=[N+]([O-])C1", "note": "[CDP, reference compound]", "values": [
      {"measurement": "increase in punished responding vs controls", "setting": "punished responding; 5 min session, p=0.03, FIG. 14", "result": 197.4, "unit": "%"},
      {"measurement": "punished responding", "setting": "punished responding; controls 3.11±0.68", "result": "6.14±1.14"}
    ]},
    {"smiles": "O=C1CN=C(c2ccccc2Cl)c2cc([N+](=O)[O-])ccc2N1", "note": "[Clonazepam]", "values": [
      {"measurement": "effect on number of light/dark transitions (literature)", "setting": "[1]", "result": "increase the number of transitions"},
      {"measurement": "LD50", "setting": "[2]", "result": "> 6000", "unit": "mg/kg"},
      {"measurement": "ED50 STR (strychnine)", "setting": "[3]", "result": "NP"},
      {"measurement": "ED50 PICRO (picrotoxin)", "setting": "[4]", "result": 0.043, "unit": "mg/kg"},
      {"measurement": "ED50 BIC (bicuculline)", "setting": "[5]", "result": 0.0086, "unit": "mg/kg"},
      {"measurement": "ED50 RR (Rotorod)", "setting": "[6]", "result": 0.184, "unit": "mg/kg"},
      {"measurement": "ED50 MTZ (metrazol)", "setting": "[7]", "result": 0.009, "unit": "mg/kg"},
      {"measurement": "ED50 MES (maximal electroshock)", "setting": "[8]", "result": 93, "unit": "mg/kg"},
      {"measurement": "% enhancement of basal 36Cl uptake", "setting": "[9]; GABA (25 μM) + clonazepam (1 μM)", "result": "164±2", "unit": "%"},
      {"measurement": "% enhancement of basal 36Cl uptake", "setting": "[9]; clonazepam (1 μM), no GABA", "result": "1 ± 0.5", "unit": "%"}
    ]},
    {"smiles": "CN1C(=O)CN=C(c2ccccc2)c2cc(Cl)ccc21", "note": "[Diazepam, reference compound]", "values": [
      {"measurement": "effect on number of light/dark transitions (literature)", "setting": "[1]", "result": "increase the number of transitions"},
      {"measurement": "total distance, open-field", "setting": "open-field activity; 10 min, vehicle 2004.6 ± 134.6", "result": "4817.7 ± 528.4", "unit": "cm"},
      {"measurement": "effect on open-field activity", "setting": "open-field activity; steroids 20 mg/kg", "result": "significant (p<0.01) increase in activity"},
      {"measurement": "effect on locomotor activity", "setting": "locomotor activity; acclimated mice", "result": "no effect"},
      {"measurement": "total distance traveled, acclimated mice", "setting": "locomotor activity; diazepam 10 mg/kg, controls 2061.2±157.7 cm", "result": "2258.0±897.7", "unit": "cm"},
      {"measurement": "effect on number of light/dark transitions (words)", "setting": "[10]; 3α-OH-DHP 10, 20, 40 mg/kg, 5α-THDOC 20 mg/kg, diazepam 1.0, 5.0, 10, 20 mg/kg, 20 mg/kg", "result": "significantly (p<0.01) different from controls"},
      {"measurement": "number of transitions in 10 min (maximal response)", "setting": "[10]; diazepam 10 mg/kg i.p., FIG. 11", "result": "86.4±5.4", "unit": "transitions"}
    ]},
    {"smiles": "CC(=O)[C@H]1CC[C@H]2[C@@H]3CCC4=CC(=O)CC[C@]4(C)[C@H]3CC[C@]12C", "note": "[PROGESTERONE, reference compound]", "values": [
      {"measurement": "potency/activity at the GR complex", "setting": "[11]; modulation of [35S]TBPS binding", "result": "very low potency"},
      {"measurement": "IC50", "setting": "[11]; read-out: IC50, inhibition of [35S]-TBPS binding, +5 μM GABA, in the presence of 5 μM GABA", "result": 5.2, "unit": "µM"},
      {"measurement": "IC50", "setting": "[11]; read-out: IC50, inhibition of [35S]-TBPS binding, No GABA, washed synaptoneurosomes, no GABA added", "result": "> 100", "unit": "µM"},
      {"measurement": "Max. Inhib., maximal % of specifically bound [35S]-TBPS displaced", "setting": "[11]; saturating concentrations of test compound", "result": 100, "unit": "%"},
      {"measurement": "dose-response relationship in the treatment of PMS", "setting": "[12]; Maddocks et al., Dennerstein et al.", "result": "no dose-response relationship exists"},
      {"measurement": "clinical effectiveness", "setting": "[12]", "result": "not consistently effective"}
    ]},
    {"smiles": "C[C@]12CC[C@H]3[C@@H](CCC4=CC(=O)CC[C@@]43C)[C@@H]1CC[C@@H]2C(=O)CO", "note": "[desoxycorticosterone]", "values": [
      {"measurement": "clinical effectiveness", "setting": "[12]", "result": "effective"}
    ]}
  ]
}
